Data: US10478506B2, “Fucoidan nanogels and methods of their use and manufacture” (Memorial Sloan Kettering Cancer Center, priority 2014, dated 2019)

Columns and labels:
[1] = tested on: A375, SW620, LOVO and HCT116 xenografts; assay: Tumor xenografts in nude mice, tumor growth; type: in vivo; settings: single administration
Description: Six-week-old female athymic NU/NU nude mice were injected subcutaneously with 5×10^5 of A375, SW620, LOVO, and HCT116 in […] culture media/Matrigel at a 1:5 ratio. For cell-line-derived xenografts, animals were randomized at a tumor volume of 70 to 120 mm^3 to four to six groups, with n=8-10 tumors per group. […] Xenografts were measured with digital caliper, and tumor volumes were determined with the formula: […]. Animals were euthanized using CO2 inhalation. Tumor volumes are plotted as means±SEM. Mice were housed in air-filtered laminar flow cabinets with a 12-hr light/dark cycle and food and water ad libitum. […]

[2] = tested on: B16F10 melanoma lung metastases
Description: A luciferase-expressing B16F10 melanoma lung metastasis model was used. The cells were injected into the tail vein at day 0. The FiDOX particles and controls were injected at day 7. The progression of metastasis was monitored with bioluminescence imaging after injection of luciferin. The bioluminescence images show the luciferase-expressing B16F10 cancer cells after injection of D-luciferin, 21 days after inoculation and 14 days after a single treatment.
FIG. 8 is a plot showing laboratory mouse survival curve data in the B16F10 melanoma lung metastasis model treated with a single injection of FiDOX nanoparticles, injected on day 7.
C57BL/6 mice were inoculated intravenously (i.v.) with 1×10^5B16-F10 cells on day 0 and the tumor was allowed to establish until day 7. In one experiment, mice were divided randomly into 5 groups and injected i.v. with FiDOX, Fi, DexDOX.
After treatment, mice were monitored up to 8 or 17 weeks, depending on the treatment received. At the end of the experiments, mice were sacrificed, their lungs were collected, and the number of surface-visible tumors was examined. The Kaplan-Meier method was used to evaluate survival.
The anti-tumor efficacy of P-selectin-targeted drug carrier nanoparticles was assessed against an aggressive experimental metastasis model. […]

In the case of Cn1cnc2c(F)c(Nc3ccc(Br)cc3F)c(C(=O)NOCCO)cc21 [MEK162, 6-(4-bromo-2-fluoroanilino)-7-fluoro-N-(2-hydroxyethoxy)-3-methylbenzimidazole-5-carboxamide], the tumor growth inhibition [1] is reported as “no effect”.
COc1cccc2c1C(=O)c1c(O)c3c(c(O)c1C2=O)C[C@@](O)(C(=O)CO)C[C@@H]3O[C@H]1C[C@H](N)[C@H](O)[C@H](C)O1 [doxorubicin, (7S,9S)-7-[(2R,4S,5S,6S)-4-amino-5-hydroxy-6-methyloxan-2-yl]oxy-6,9,11-trihydroxy-9-(2-hydroxyacetyl)-4-methoxy-8,10-dihydro-7H-tetracene-5,12-dione] was tested, and the survival ([2]; single injection on day 7) was “did not have a significant effect” and the tumor burden ([2]; single injection, bioluminescence) was “did not have a significant effect”.
